Structures can show the parent of a compound that is named as a salt.
Assay: in vitro
Conditions: rat, gh3-tre-luc cells, AC50 (uM) modified / 1000
With `CC(C)CCCCCCOC(=O)c1ccc(C(=O)OCCCCCCC(C)C)c(C(=O)OCCCCCCC(C)C)c1` [Triisononyl trimellitate] the CC50 at 24 h was greater than 90 µM. Work on `COc1cc2c(cc1N)oc1ccccc12` [2-Methoxy-3-aminodibenzofuran] yielded a CC50 at 24 h greater than 90 µM. `CCCCCCCCCCCCSCCOCCOCCOCCOCCOCCOCCOCCOCCOCCO` [Laureth 10s] showed a CC50 at 24 h greater than 50 µM. For `Oc1ccc(Cc2ccccc2O)cc1` [2-(4-Hydroxybenzyl)phenol], the CC50 at 24 h was greater than 90 µM. `CCN(Cc1cccc(S(=O)(=O)O)c1)c1ccccc1` [3-((Ethylphenylamino)methyl)benzenesulfonic acid] gave a CC50 at 24 h greater than 90 µM. `C(=C/c1ccccc1)/c1ccccc1` [cis-Stilbene] gave a CC50 at 24 h greater than 90 µM. In the case of `CC(C)=CC1C(C(=O)OCc2cccc(Oc3ccccc3)c2)C1(C)C` (stereo not shown) [Phenothrin], the CC50 at 24 h is reported as greater than 90 µM. `C=C[Si](OCCOC)(OCCOC)OCCOC` showed a CC50 at 24 h greater than 90 µM. `O=C1c2ccccc2C(=O)N1CCl` [2-(Chloromethyl)-1H-isoindole-1,3(2H)-dione] showed a CC50 at 24 h greater than 90 µM. Molecule `O=P(O)(O)CP(=O)(O)O` [Medronic acid] has a CC50 at 24 h greater than 50 µM. `COc1cc([C@@H]2c3cc4c(cc3[C@@H](O[C@@H]3O[C@@H]5CO[C@@H](C)O[C@H]5[C@H](O)[C@H]3O)[C@H]3COC(=O)[C@H]23)OCO4)cc(OC)c1OP(=O)(O)O` [Etoposide phosphate] showed a CC50 at 24 h greater than 50 µM. Work on `COc1ccc(CCNCC(O)COc2cccc(C)c2)cc1OC` (stereo not shown) [Bevantolol hydrochloride] yielded a CC50 at 24 h of 20.6 µM. In the case of `CC/C=C\C#N` [(2Z)-2-Pentenenitrile], the CC50 at 24 h is reported as greater than 90 µM. Work on `CN(C(=O)C(Cl)Cl)c1ccc(OC(=O)c2ccco2)cc1` [Diloxanide furoate] yielded a CC50 at 24 h greater than 50 µM. Molecule `O=C1CC2CC1C1CCCC21` (stereo not shown) [Corodane] has a CC50 at 24 h greater than 90 µM. Molecule `CC(CC(C)C)=NO` [N-Hydroxy-4-methylpentan-2-imine] has a CC50 at 24 h greater than 90 µM. For `COc1ccc(-c2cc(=S)ss2)cc1` [Anethole trithione], the CC50 at 24 h was greater than 50 µM. For `CCNc1nc(Cl)nc(NC(C)C)n1` [Atrazine], the CC50 at 24 h was greater than 90 µM. Work on `COc1ccc2c(c1)N(C[C@H](C)CN(C)C)c1ccccc1S2` [Methotrimeprazine maleate] yielded a CC50 at 24 h of 6.79 µM. `O=[N+]([O-])c1ccc(/C=C/c2ccc([N+](=O)[O-])cc2S(=O)(=O)O)c(S(=O)(=O)O)c1` [Disodium 4,4'-dinitro-2,2'-stilbenedisulfonate] gave a CC50 at 24 h greater than 90 µM. For `COC(=O)c1cc(Cl)ccc1[N+](=O)[O-]` [Methyl 5-chloro-2-nitrobenzoate], the CC50 at 24 h was greater than 90 µM. `O=[N+]([O-])c1c(Cl)cc(Cl)cc1Cl` [2,4,6-Trichloronitrobenzene] gave a CC50 at 24 h greater than 90 µM. For `CCCCCCC(C)(C)S` [tert-Nonanethiol], the CC50 at 24 h was greater than 90 µM. In the case of `CC(C)OCC1CO1` (stereo not shown) [Isopropyl glycidyl ether], the CC50 at 24 h is reported as greater than 90 µM. `CC(C)[C@H]1CC[C@H](C)C[C@@H]1O` [(1S,2R,5S)-(+)-Menthol] gave a CC50 at 24 h greater than 90 µM. Molecule `COc1cc(C)c(Cc2cnc(N)nc2N)cc1OC` [Ormetoprim] has a CC50 at 24 h greater than 50 µM. Molecule `C#CC(O)C(CC)CCCC` (stereo not shown) [4-Ethyloct-1-yn-3-ol] has a CC50 at 24 h greater than 90 µM. `C=C(C)C(=O)OCCCCOC(=O)C(=C)C` [Butane-1,4-diyl bis(2-methylprop-2-enoate)] showed a CC50 at 24 h greater than 90 µM. `CC(C)(C)NCC(O)COc1cccc2c1CCC(=O)N2` (stereo not shown) [Carteolol hydrochloride] showed a CC50 at 24 h greater than 20 µM. In the case of `Nc1ccc(C(=O)Nc2ccccc2N)cc1` [Dianiline], the CC50 at 24 h is reported as 14.1 µM. Molecule `CN1CCN(C2=Nc3ccccc3Cc3ccccc32)CC1` [Perlapine] has a CC50 at 24 h of 25.9 µM. With `CC(C)(C)C(=O)OCOP(=O)(COCCn1cnc2c(N)ncnc21)OCOC(=O)C(C)(C)C` [Adefovir dipivoxil] the CC50 at 24 h was greater than 50 µM. For `CC(C)COC(=O)c1ccc(N)cc1` [Isocaine], the CC50 at 24 h was greater than 50 µM. `C/C=C/C=O` [Crotonaldehyde] gave a CC50 at 24 h greater than 90 µM. With `O=C(O)CC(C(=O)O)S(=O)(=O)O` (stereo not shown) [Sulfosuccinic acid] the CC50 at 24 h was greater than 90 µM. In the case of `CCCCNCCCC` [N-Butyl-1-butanamine], the CC50 at 24 h is reported as greater than 90 µM. `C[N+](C)(C)Cc1ccccc1` [Benzyltrimethylammonium chloride] gave a CC50 at 24 h greater than 90 µM. With `O=C(O)Cc1cn(-c2ccccc2)nc1-c1ccc(Cl)cc1` [Lonazolac] the CC50 at 24 h was greater than 50 µM. `Cc1cc(C)c(S(=O)(=O)O)cc1N=Nc1cc(S(=O)(=O)O)c2ccccc2c1O` [FD&C Red 4] gave a CC50 at 24 h of 33.6 µM. `CCCCCCCCCC(C)=O` [2-Undecanone] showed a CC50 at 24 h greater than 90 µM. With `CN1CCN(CCC(=O)N2c3ccccc3Sc3ccc(C(F)(F)F)cc32)CC1` [Ftormetazine] the CC50 at 24 h was 25.8 µM. `OCC(O)CS` (stereo not shown) [1-Thioglycerol] gave a CC50 at 24 h greater than 90 µM. Work on `COCC(=O)O[C@]1(CCN(C)CCCc2nc3ccccc3[nH]2)CCc2cc(F)ccc2[C@@H]1C(C)C` [Mibefradil dihydrochloride] yielded a CC50 at 24 h of 1.9 µM. `O=C(CCCN1CCC(C(=O)c2ccc(F)cc2)CC1)c1ccc(F)cc1` [Lenperone] showed a CC50 at 24 h greater than 50 µM. Work on `c1ccc2c(CC3=NCCN3)cccc2c1` [Naphazoline hydrochloride] yielded a CC50 at 24 h greater than 50 µM. Work on `C/C=C/C(=O)O` [2-Butenoic acid] yielded a CC50 at 24 h greater than 90 µM. With `C=C[C@]1(C)C[C@@H](OC(=O)CO)[C@]2(C)[C@H](C)CC[C@]3(CCC(=O)[C@H]32)[C@@H](C)[C@@H]1O` [Pleuromutilin] the CC50 at 24 h was greater than 50 µM. For `O=[N+]([O-])c1cccc(Cl)c1` [1-Chloro-3-nitrobenzene], the CC50 at 24 h was greater than 90 µM. `Nc1ccc(C(=O)Oc2ccccc2)c(O)c1` [Phenyl 4-aminosalicylate] showed a CC50 at 24 h greater than 50 µM. With `CCCC=O` [Butyraldehyde] the CC50 at 24 h was greater than 90 µM. Molecule `CCC(CO)CO` [2-Ethylpropane-1,3-diol] has a CC50 at 24 h greater than 90 µM. Molecule `CO[C@]12C[C@@H](COC(=O)c3cncc(Br)c3)CN(C)[C@@H]1Cc1cn(C)c3cccc2c13` [Nicergoline] has a CC50 at 24 h of 16.4 µM. Molecule `CCCCCCCCO` [1-Octanol] has a CC50 at 24 h greater than 90 µM. Work on `CCCCCCCCCOC(=O)c1ccc(O)cc1` [Nonylparaben] yielded a CC50 at 24 h of 21.8 µM. For `CSC(C)(C)/C=N/O` [Aldicarb oxime], the CC50 at 24 h was greater than 90 µM. With `CCOC(=O)c1ccccc1OC` [Ethyl 2-methoxybenzoate] the CC50 at 24 h was greater than 90 µM. `CC=C(C)C#N` [2-Methyl-2-butenenitrile] gave a CC50 at 24 h greater than 90 µM. Molecule `CC(=O)[C@@]1(O)CC[C@H]2[C@@H]3C=C(Cl)C4=CC(=O)[C@@H]5C[C@@H]5[C@]4(C)[C@H]3CC[C@@]21C` [Cyproterone] has a CC50 at 24 h greater than 50 µM. `CN1C(=O)CC[C@H]1c1cccnc1` [Cotinine] gave a CC50 at 24 h greater than 90 µM. `COC(=O)C(c1ccccc1)C1CCCCN1` (stereo not shown) [Methylphenidate hydrochloride] showed a CC50 at 24 h greater than 90 µM. In the case of `Cc1cccc[n+]1[O-]` [2-Methylpyridine 1-oxide], the CC50 at 24 h is reported as greater than 90 µM. Molecule `CN(C)CC[C@@H](c1ccc(Br)cc1)c1ccccn1` [Dexbrompheniramine maleate] has a CC50 at 24 h of 26.6 µM. `CC(C)C[C@@H]1NC(=O)[C@H](CCCN)NC(=O)[C@H](C(C)C)NC(=O)[C@H](Cc2ccc(O)cc2)N[C@@H](CCC(=O)O)C(=O)N[C@@H](CC(N)=O)C(=O)[C@@H](Cc2ccccc2)NC(=O)[C@H](Cc2ccccc2)NC(=O)[C@@H]2CCCN2C(=O)[C@@H](Cc2ccccc2)NC1=O` [Tyrothricin] gave a CC50 at 24 h of 1.25 µM. Molecule `C/C(C=O)=C\c1ccccc1` [2-Methylcinnamic aldehyde] has a CC50 at 24 h greater than 90 µM. Molecule `Cc1cc(Br)ccc1NC(=O)CCl` [2-Chloro-N-(2-methyl-4-bromophenyl)acetamide] has a CC50 at 24 h of 22.1 µM. In the case of `CNCC(=O)N[C@@H](CCCN=C(N)N)C(=O)N[C@H](C(=O)N[C@@H](Cc1ccc(O)cc1)C(=O)N[C@H](C(=O)N[C@@H](Cc1cnc[nH]1)C(=O)N1CCC[C@H]1C(=O)N[C@@H](C)C(=O)O)C(C)C)C(C)C` [Saralasin], the CC50 at 24 h is reported as greater than 50 µM. `COc1ccc([N+](=O)[O-])cc1N` [2-Methoxy-5-nitroaniline] gave a CC50 at 24 h greater than 90 µM. In the case of `CCCCCCCCCCCC(=O)OCC(O)CO` (stereo not shown) [1-Monolaurin], the CC50 at 24 h is reported as greater than 90 µM. Molecule `CCCCCCOC(=O)c1ccccc1` [Hexyl benzoate] has a CC50 at 24 h greater than 90 µM. `CCCCC(CC)CN1CN(CC(CC)CCCC)CC(C)(N)C1` (stereo not shown) [Hexetidine] showed a CC50 at 24 h greater than 20 µM. With `On1ccccc1=S` [Sodium (2-pyridylthio)-N-oxide] the CC50 at 24 h was 1.83 µM.

Same assay, conditions: rat, gh3-tre-luc cells, AC50 (uM) modified / 1000, Tox21_110001=Tox21_110539; viability, 1 nM T3 present, 24 h
In the case of `O=P1(NCCCl)OCCCN1CCCl` (stereo not shown) [Ifosfamide], the CC50 at 24 h is reported as greater than 20 µM.

Same assay, conditions: rat, gh3-tre-luc cells, AC50 (uM) modified / 1000, Tox21_110001=Tox21_111056; viability, 1 nM T3 present, 24 h
For `C[C@]12CCC(=O)C[C@@H]1CC[C@@H]1[C@@H]2CC[C@]2(C)[C@@H](O)CC[C@@H]12` [5alpha-Dihydrotestosterone], the CC50 at 24 h was greater than 50 µM.

Same assay, conditions: rat, gh3-tre-luc cells, AC50 (uM) modified / 1000, Tox21_110001=Tox21_111872; viability, 1 nM T3 present, 24 h
Work on `CCN(C(C)=O)c1cccc(-c2ccnc3c(C#N)cnn23)c1` [Zaleplon] yielded a CC50 at 24 h greater than 50 µM.

Same assay, conditions: rat, gh3-tre-luc cells, AC50 (uM) modified / 1000, Tox21_110001=Tox21_200294; viability, 1 nM T3 present, 24 h
`CCCC(=O)Cl` [Butyryl chloride] showed a CC50 at 24 h greater than 90 µM.

Same assay, conditions: rat, gh3-tre-luc cells, AC50 (uM) modified / 1000, Tox21_110001=Tox21_200573; viability, 1 nM T3 present, 24 h
`CC(C)(C#N)C(C)(C)C#N` [Tetramethylsuccinonitrile] showed a CC50 at 24 h greater than 90 µM.

Same assay, conditions: rat, gh3-tre-luc cells, AC50 (uM) modified / 1000, Tox21_110001=Tox21_200987; viability, 1 nM T3 present, 24 h
`C[C@]12CCC(=O)C[C@@H]1CC[C@@H]1[C@@H]2CC[C@]2(C)[C@@H](O)CC[C@@H]12` [5alpha-Dihydrotestosterone] gave a CC50 at 24 h greater than 90 µM.

Same assay, conditions: rat, gh3-tre-luc cells, AC50 (uM) modified / 1000, Tox21_110001=Tox21_201815; viability, 1 nM T3 present, 24 h
Molecule `O=P1(NCCCl)OCCCN1CCCl` (stereo not shown) [Ifosfamide] has a CC50 at 24 h greater than 90 µM.

Same assay, conditions: rat, gh3-tre-luc cells, AC50 (uM) modified / 1000, Tox21_110001=Tox21_300792; viability, 1 nM T3 present, 24 h
Work on `COC(=O)Cc1ccccc1` [Methyl phenylacetate] yielded a CC50 at 24 h greater than 90 µM.

Same assay, conditions: rat, gh3-tre-luc cells, AC50 (uM) modified / 1000, Tox21_110001=Tox21_301190; viability, 1 nM T3 present, 24 h
For `O=S(=O)(c1ccccc1)c1ccccc1` [Diphenylsulfone], the CC50 at 24 h was greater than 90 µM.

Same assay, conditions: rat, gh3-tre-luc cells, AC50 (uM) modified / 1000, Tox21_110001=Tox21_301421; viability, 1 nM T3 present, 24 h
`CCOP(=S)(OCC)SCn1nnc2ccccc2c1=O` [Azinphos-ethyl] gave a CC50 at 24 h greater than 90 µM.

Same assay, conditions: rat, gh3-tre-luc cells, AC50 (uM) modified / 1000, Tox21_110001=Tox21_303655; viability, 1 nM T3 present, 24 h
Work on `C[C@]12CCC(=O)C[C@@H]1CC[C@@H]1[C@@H]2CC[C@]2(C)[C@@H](O)CC[C@@H]12` [5alpha-Dihydrotestosterone] yielded a CC50 at 24 h greater than 60 µM.
